Source: US20140213508A1, “ANTIVIRAL MACROCYCLES” (priority 2012, published 2014)
Read-outs that look alike come from different tables or passages of the source. Numbered stars: 1 amine (or outer) side, 2 acyl side, 3 side chain; on linkers, the order of the positions; unused ones are H or OH. Square brackets hold non-standard residues; d marks the D form. Peptide text beside a SMILES is read from it. ξ: configuration not given here. X1 = CN(C)C1(CS[C@H](C(=O)[*:2])N(C)[*:1])CCC1; ξNMeBmt = C/C=C/C[C@@H](C)[C@@H](O)C(NC)C(=O)O; X2 = CC(C)[C@H](C(=O)[*:2])N(Cc1ccccc1)[*:1]; X3 = CCNC1(CS[C@H](C(=O)[*:2])N(C)[*:1])CC1; X4 = CNC1(CS[C@H](C(=O)[*:2])N(C)[*:1])CC1; NMeLeu(4-OH) = CN[C@@H](CC(C)(C)O)C(=O)O; NMeL = CN[C@@H](CC(C)C)C(=O)O; dNMeL = CN[C@H](CC(C)C)C(=O)O; dNMeV = CN[C@@H](C(=O)O)C(C)C; dAbu = CC[C@@H](N)C(=O)O

Assays:
[1] = test system: IFN-λ1 (IL-29) production in human peripheral blood mononuclear cells; test: IL-29 production in human PBMCs (ELISA); format: cell-based; conditions: 2 μM for 24 hours; for pg/mL IL29 Av.: average; for pg/mL IL29: individual wells
[2] = test system: HBV entry into cultured hepatocytes (HepaRG cells); test: Inhibition of HBV entry into HepaRG cells; format: cell-based; conditions: Hepatitis B virus, 288 h, read-out: IC50 HBV entry
[3] = test system: IFN-α production in human peripheral blood mononuclear cells; test: IFN-α production in human PBMCs (ELISA); format: cell-based; conditions: 2 μM for 24 hours; for pg/mL IFNα Av.: average; for pg/mL IFNα: individual wells
[4] = test system: Dengue virus DENV1 strain; test: Dengue virus infection and replication assay in HuH7 cells; format: cell-based; conditions: read-out: IC50 Dengue virus production
Description: Compounds A, B, and F were tested for activity against Dengue virus in a cell-based assay of viral infection and replication. HuH7 cells were infected with the DENV1 strain (multiplicity of infection=0.1). After a 1 hour incubation to allow viral attachment and infection, compounds were added (at concentrations of 1, 3 and 9 μM, in triplicate). Incubation was continued for 5 days, and cells and media were then harvested for analysis. Viral replication was assessed by a real-time RT-PCR assay for virus present in the media, and cells were assayed for metabolic viability (MTT assay).

[5] = test system: IFN-α production in human peripheral blood mononuclear cells; test: IFN-α production in human PBMCs (ELISA); format: cell-based; conditions: 2 μM for 24 hours, individual wells
Description: Cryopreserved commercial or previously isolated PBMCs from HCV donors cryopreserved in RPMI1640)/Fetal Bovine/DMSO solution (50/40/10 v/v) were tested with compounds provided herein. […]
PBMC were cultured for 24 hours at 37° C. in RPMI cell culture medium in flat bottom 48 well-plates. Each well received 180 μL of cell suspension (2×10^6 cells/mL). […] At the end of the incubation, the plates are centrifuged at 200 times g for 5 minutes. The cell supernatants are collected and assayed by ELISA for cytokines IFN-α's (the detection reagent recognized 14 of the 15 known human IFN-α subtypes) and IFN-λ1 (IL-29). The cell pellet is washed twice with cold PBS and ATP content are determined by adding 100 μL per well of the Cell Titer Glo® (Promega, Madison, Wis.). Plates are then placed at −80° C. until protein analysis. For the protein analysis, plates are thawed, scraped and the protein content of the cell suspension determined using BCA Protein Assay Kit (23227, ThermoScientific, Rockford Ill.).

[6] = test system: Influenza A H1N1 (A/CA/05/09); test: Anti-influenza virus cytoprotection assay in MDCK cells; format: cell-based; conditions: in triplicate, read-out: IC50 against Influenza A H1N1
[7] = test system: HCV RNA replicon Genotype 1b; test: HCV replicon assay, 1b replicon (LUC); conditions: Hepatitis C virus, 72 h, read-out: mean EC50 Genotype 1b
Source text: Compounds were examined in the human hepatoma cell a HCV RNA replicon containing a stable luciferase (LUC) reporter. The HCV RNA replicon ET contains the 5′ end of HCV (with the HCV Internal Ribosome Entry Site (IRES) and the first few amino acids of the HCV core protein) which drives the production of neomycin phosphotransferase (NeoR) fusion protein. A luciferase reported is incorporated into 1b replicon. The EMCV IRES element controls the translation of the HCV structural proteins NS3-NS5. The NS3 protein cleaves the HCV polyprotein to release the mature NS3, NS4A, NS4B, NS5A and NS5B proteins that are required for HCV replication. At the 3′ end of the replicon is the authentic 3′ NTR of HCV. The activity of the LUC reporter is directly proportional to HCV replication levels and positive-control antiviral compounds produce a reproducible antiviral response using the LUC endpoint.
The compounds were dissolved in DMSO at six half-log concentrations. HCV replicon cells were plated out into 96 well plates dedicated for the analysis of cell numbers (cytotoxicity) or antiviral activity and the next day the compounds were added to the appropriate wells. […] Compound EC50 and EC90 values were derived from HCV RNA levels assessed as HCV RNA replicon derived LUC activity. […] Compound IC50 and IC90 values were calculated using a colorimetric assay as an indication of cell numbers and cytotoxicity. […]

Cyclophilin A = Cyclophilin A (Homo sapiens, UniProt P62937); test: Cyclophilin binding competitive ELISA; conditions: human recombinant cyclophilin
Cyclophilin B = Cyclophilin B (Homo sapiens, UniProt P23284); test: Cyclophilin binding competitive ELISA; conditions: human recombinant cyclophilin
Source text: Plates were washed as described above. […] Plates were washed as described above.

[8] = HepaRG cells, HBs level by ELISA 12 days post-infection
[9] = donor CT2 (test 3) (HCV, cryopreserved PBMCs)
[10] = donor Healthy 2, background subtracted

Cyclophilin B, sequence (P23284 34-216): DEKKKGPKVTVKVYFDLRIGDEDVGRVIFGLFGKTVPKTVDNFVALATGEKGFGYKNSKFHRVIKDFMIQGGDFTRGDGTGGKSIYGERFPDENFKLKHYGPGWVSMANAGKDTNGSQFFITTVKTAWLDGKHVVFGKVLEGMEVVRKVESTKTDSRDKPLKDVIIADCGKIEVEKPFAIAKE
Cyclophilin A, sequence (P62937 whole entry): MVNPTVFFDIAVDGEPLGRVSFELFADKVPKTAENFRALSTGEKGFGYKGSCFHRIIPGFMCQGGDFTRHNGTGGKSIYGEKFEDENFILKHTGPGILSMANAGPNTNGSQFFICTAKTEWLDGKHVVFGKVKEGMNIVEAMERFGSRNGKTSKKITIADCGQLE

## CC=CC[C@@H](C)[C@@H](O)C1C(=O)NC(CC)C(=O)N(C)C(SCC2(N(C)C)CC2)C(=O)N(C)[C@@H](CC(C)(C)O)C(=O)NC(C(C)C)C(=O)N(C)C(CC(C)C)C(=O)NC(C)C(=O)NC(C)C(=O)N(C)C(CC(C)C)C(=O)N(C)C(CC(C)C)C(=O)N(C)C(C(C)C)C(=O)N1C (stereo in doubt) [Compound A]
[1]; donor Healthy 1
  pg/mL IL29 Av.: <LOQ
  pg/mL IL29: <LOQ
[1]; donor Healthy 3
  pg/mL IL29 Av.: <LOQ
  pg/mL IL29: <LOQ
[2]; [8]
  IC50: 1600 nM
[3]; donor Healthy 1
  pg/mL IFNα Av.: <LOQ
  pg/mL IFNα: <LOQ
[3]; donor Healthy 2
  pg/mL IFNα Av.: <LOQ
  pg/mL IFNα: <LOQ
[3]; donor Healthy 3
  pg/mL IFNα Av.: <LOQ
  pg/mL IFNα: <LOQ
[4]; DENV1, Huh-7, 120 h
  IC50: > 9000 nM
[5]; donor CT2 (HCV), first test
  pg/mL IFNα: 4 pg/mL
[5]; [9]
  pg/mL IFNα: 7 pg/mL

## CC=CC[C@@H](C)[C@@H](O)C1C(=O)NC(CC)C(=O)N(C)C(SCC2(N(C)C(C)C)CC2)C(=O)N(C)[C@@H](CC(C)(C)O)C(=O)NC(C(C)C)C(=O)N(C)C(CC(C)C)C(=O)NC(C)C(=O)NC(C)C(=O)N(C)C(CC(C)C)C(=O)N(C)C(CC(C)C)C(=O)N(C)C(C(C)C)C(=O)N1C (stereo in doubt) [Compound B]
[1]; donor Healthy 1
  pg/mL IL29: 20 pg/mL and <LOQ
[1]; [10]
  pg/mL IL29 Av.: <LOQ
  pg/mL IL29: <LOQ
[1]; donor Healthy 3
  pg/mL IL29 Av.: <LOQ
  pg/mL IL29: <LOQ
[2]; [8]
  IC50: < 1000 nM
[3]; donor Healthy 1
  pg/mL IFNα Av.: <LOQ
  pg/mL IFNα: <LOQ
[3]; donor Healthy 2
  pg/mL IFNα Av.: <LOQ
  pg/mL IFNα: <LOQ
[3]; donor Healthy 3
  pg/mL IFNα Av.: <LOQ
  pg/mL IFNα: <LOQ
[4]; Huh-7, 120 h, HuH7 cells, DENV1, 5 days, real-time RT-PCR of media
  IC50: 1000 nM
[5]; [9]
  pg/mL IFNα: 8 pg/mL

## C/C=C/C[C@@H](C)[C@@H](O)C1C(=O)N[C@H](CC)C(=O)N(C)[C@H](SCC2(N(C)C)CCC2)C(=O)N(C)[C@@H](CC(C)C)C(=O)N(Cc2ccccc2)[C@H](C(C)C)C(=O)N(C)[C@H](CC(C)C)C(=O)N[C@H](C)C(=O)N[C@@H](C)C(=O)N(C)[C@H](CC(C)C)C(=O)N(C)[C@H](CC(C)C)C(=O)N(C)[C@H](C(C)C)C(=O)N1C (stereo partly shown) [Compound F] (cyclo(A[dNMeL][dNMeL][dNMeV][ξNMeBmt][dAbu][X1][NMeL][X2][dNMeL][dA]))
[2]; HepaRG
  IC50: < 1000 nM
[4]; DENV1, Huh-7, 120 h
  IC50: 1400 nM
[6]
  IC50: 5400 nM

## C/C=C/C[C@@H](C)[C@@H](O)C1C(=O)N[C@H](CC)C(=O)N(C)[C@H](SCC2(NC)CC2)C(=O)N(C)[C@@H](CC(C)(C)O)C(=O)N[C@H](C(C)C)C(=O)N(C)[C@H](CC(C)C)C(=O)N[C@H](C)C(=O)N[C@@H](C)C(=O)N(C)[C@H](CC(C)C)C(=O)N(C)[C@H](CC(C)C)C(=O)N(C)[C@H](C(C)C)C(=O)N1C (stereo partly shown) [Compound G] (cyclo(A[dNMeL][dNMeL][dNMeV][ξNMeBmt][dAbu][X4][NMeLeu(4-OH)][dV][dNMeL][dA]))
[7]
  EC50: 60 nM
Cyclophilin A
  IC50: 29 nM
Cyclophilin B
  IC50: 50 nM

## C/C=C/C[C@@H](C)[C@@H](O)C1C(=O)N[C@H](CC)C(=O)N(C)[C@H](SCC2(NCC)CC2)C(=O)N(C)[C@@H](CC(C)(C)O)C(=O)N[C@H](C(C)C)C(=O)N(C)[C@H](CC(C)C)C(=O)N[C@H](C)C(=O)N[C@@H](C)C(=O)N(C)[C@H](CC(C)C)C(=O)N(C)[C@H](CC(C)C)C(=O)N(C)[C@H](C(C)C)C(=O)N1C (stereo partly shown) [Compound H] (cyclo(A[dNMeL][dNMeL][dNMeV][ξNMeBmt][dAbu][X3][NMeLeu(4-OH)][dV][dNMeL][dA]))
[7]
  EC50: 40 nM
Cyclophilin A
  IC50: 14 nM
Cyclophilin B
  IC50: 16 nM
